In the supplement of paper PMC10307832:

Tests used:
Assay in all cases: relative viability (nuclei count vs DMSO), 5 days (fraction); higher = more cells survive
[1] = compound: COc1cc2ncn(-c3cc(OCc4ccccc4C(F)(F)F)c(C(N)=O)s3)c2cc1OC + Nc1nc2[nH]cc(CCc3ccc(C(=O)N[C@@H](CCC(=O)O)C(=O)O)cc3)c2c(=O)[nH]1 [Pemetrexed] (partner 0.2 µM)
Summary of the method: (§1)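 Relative viability is defined as nuclei in treated wells over nuclei in vehicle wells. Duplicate plates were run and medians reported. Lung cancer cell lines in 1536-well plates were dosed by pin tool one day after seeding, with one drug or with a fixed anchor-drug dose plus five library-drug doses (not always all listed) in √10 steps, and nuclei were counted after 5 days.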

[2] = compound: COc1cc2ncn(-c3cc(OCc4ccccc4C(F)(F)F)c(C(N)=O)s3)c2cc1OC + CC(=O)c1c(C)c2cnc(Nc3ccc(N4CCNCC4)cn3)nc2n(C2CCCC2)c1=O [Palbociclib] (partner 0.5 µM)
Summary of the method: as §1

[3] = compound: COc1cc2ncn(-c3cc(OCc4ccccc4C(F)(F)F)c(C(N)=O)s3)c2cc1OC + Cc1nc(NC(=O)N2CCC[C@H]2C(N)=O)sc1-c1ccnc(C(C)(C)C(F)(F)F)c1 [Alpelisib] (partner 2 µM)
Summary of the method: as §1

[4] = compound: COc1cc2ncn(-c3cc(OCc4ccccc4C(F)(F)F)c(C(N)=O)s3)c2cc1OC + O=C(c1cc(Cc2n[nH]c(=O)c3ccccc23)ccc1F)N1CCN(C(=O)C2CC2)CC1 [Olaparib] (partner 8 µM)
Summary of the method: as §1

| Cell Line | relative viability ([1]; first compound 0.05 µM) | relative viability ([1]; first compound 0.1581 µM) | relative viability ([1]; first compound 0.5 µM) | relative viability ([1]; first compound 1.581 µM) | relative viability ([1]; first compound 5 µM) | relative viability ([2]; first compound 0.05 µM) | relative viability ([2]; first compound 0.1581 µM) | relative viability ([2]; first compound 0.5 µM) | relative viability ([2]; first compound 1.581 µM) | relative viability ([2]; first compound 5 µM) | relative viability ([3]; first compound 0.05 µM) | relative viability ([3]; first compound 0.1581 µM) | relative viability ([3]; first compound 0.5 µM) | relative viability ([3]; first compound 1.581 µM) | relative viability ([3]; first compound 5 µM) | relative viability ([4]; first compound 0.05 µM) | relative viability ([4]; first compound 0.1581 µM) | relative viability ([4]; first compound 0.5 µM) | relative viability ([4]; first compound 1.581 µM) | relative viability ([4]; first compound 5 µM) |
| --- | --- | --- | --- | --- | --- | --- | --- | --- | --- | --- | --- | --- | --- | --- | --- | --- | --- | --- | --- | --- |
| 201T | 0.355 | 0.319 | 0.29 | 0.303 | 0.192 | 0.363 | 0.38 | 0.335 | 0.349 | 0.28 | 1 | 1.08 | 0.984 | 0.475 | 0.297 | 0.747 | 0.83 | 0.871 | 0.27 | 0.246 |
| A549 | – | – | – | – | – | – | – | – | – | – | 0.802 | 0.753 | 0.186 | 0.0572 | 0.0466 | 0.344 | 0.215 | 0.149 | 0.0485 | 0.0961 |
| A-427 | 1.05 | 1.02 | 0.887 | 0.257 | 0.203 | 0.553 | 0.479 | 0.502 | 0.331 | 0.236 | 1.01 | 1.13 | 1 | 0.486 | 0.161 | 0.745 | 0.802 | 0.54 | 0.267 | 0.169 |
| ABC-1 | – | – | – | – | – | 0.665 | 0.777 | 0.748 | 0.583 | 0.37 | 1.25 | 1.02 | 0.786 | 0.316 | 0.319 | 0.705 | 0.837 | 0.64 | 0.477 | 0.429 |
| BEN | 0.702 | 0.706 | 0.667 | 0.515 | 0.388 | 0.5 | 0.455 | 0.471 | 0.45 | 0.437 | 1.18 | 1 | 0.81 | 0.262 | 0.391 | 1.11 | 1.01 | 0.636 | 0.425 | 0.359 |
| CAL-12T | 0.706 | 1.19 | 0.621 | 0.212 | 0.165 | 0.411 | 0.422 | 0.381 | 0.187 | 0.148 | 1.03 | 0.973 | 0.513 | 0.188 | 0.196 | 0.563 | 0.676 | 0.415 | 0.189 | 0.188 |
| COR-L23 | 0.201 | 0.208 | 0.166 | 0.156 | 0.154 | 0.27 | 0.335 | 0.22 | 0.119 | 0.111 | 0.85 | 0.746 | 0.334 | 0.0804 | 0.0944 | 0.307 | 0.282 | 0.138 | 0.0966 | 0.109 |
| COR-L 105 | 0.924 | 1.24 | 0.909 | 0.409 | 0.418 | 0.396 | 0.4 | 0.424 | 0.325 | 0.321 | 1.13 | 0.913 | 0.857 | 0.34 | 0.258 | 0.709 | 0.687 | 0.595 | 0.335 | 0.369 |
| Calu-6 | – | – | – | – | – | – | – | – | – | – | 0.92 | 0.67 | 0.23 | 0.128 | 0.112 | 0.541 | 0.454 | 0.172 | 0.086 | 0.0935 |
| ChaGo-K-1 | 0.263 | 0.251 | 0.232 | 0.175 | 0.153 | 0.948 | 0.878 | 0.649 | 0.247 | 0.147 | – | – | – | – | – | 0.398 | 0.389 | 0.312 | 0.208 | 0.12 |
| EKVX | 0.395 | 0.302 | 0.334 | 0.244 | 0.242 | 0.362 | 0.438 | 0.371 | 0.248 | 0.219 | 0.889 | 0.982 | 0.834 | 0.21 | 0.215 | 0.888 | 0.934 | 0.631 | 0.206 | 0.222 |
| EMC-BAC-2 | 0.459 | 0.446 | 0.441 | 0.338 | 0.311 | 0.478 | 0.512 | 0.476 | 0.376 | 0.272 | 0.804 | 0.799 | 0.639 | 0.403 | 0.149 | 0.467 | 0.48 | 0.359 | 0.259 | 0.216 |
| EPLC-272H | 0.25 | 0.206 | 0.104 | 0.121 | 0.206 | 0.273 | 0.322 | 0.222 | 0.144 | 0.226 | 0.9 | 0.869 | 0.402 | 0.126 | 0.129 | 0.177 | 0.221 | 0.0762 | 0.0805 | 0.146 |
| H3255 | 0.556 | 0.602 | 0.552 | 0.332 | 0.341 | 0.315 | 0.285 | 0.306 | 0.256 | 0.264 | 0.626 | 0.796 | 0.444 | 0.335 | 0.233 | 0.532 | 0.534 | 0.541 | 0.415 | 0.332 |
| HARA | 0.242 | – | 0.24 | 0.176 | 0.126 | 0.224 | 0.251 | 0.234 | 0.173 | 0.127 | 0.894 | 0.764 | 0.712 | 0.176 | 0.0641 | 0.317 | – | 0.261 | 0.131 | 0.105 |
| HCC-15 | 0.23 | 0.215 | 0.174 | 0.156 | 0.13 | 0.729 | 0.702 | 0.519 | 0.167 | 0.141 | 0.93 | 0.749 | 0.283 | 0.142 | 0.1 | 0.566 | 0.446 | 0.232 | 0.131 | 0.14 |
| HCC-44 | 0.633 | 0.625 | 0.685 | 0.338 | 0.342 | 1.02 | 1.01 | 0.925 | 0.383 | 0.35 | 0.908 | 0.76 | 0.503 | 0.13 | 0.0819 | 1.06 | 1.04 | 0.877 | 0.39 | 0.372 |
| HCC-78 | 0.967 | 0.903 | 0.895 | 0.939 | 0.87 | 0.497 | 0.478 | 0.435 | 0.406 | 0.357 | 0.371 | 0.402 | 0.289 | 0.206 | 0.27 | 0.939 | 0.927 | 0.645 | 0.601 | 0.468 |
